Test results reported in patent US10781224B2, “Bis(oxymethyl)phosphinic acid and biogenic metal salts thereof as regulators of plant growth and development” (priority 2016, dated 2020).

Assays:
Format in all cases: in vivo
[1] = system: corn (Krasnodar 385 MV variety); assay: Corn seed treatment with BHMPA salts: germination energy and germination rate
Summary of the method: (§1)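 Corn, winter wheat and rice seeds (50 per dish, on filter paper) were soaked for 1 h in BHMPA or its metal salts at 1·10^−6-1·10^−12%, with water as control. Germination energy was read on day 4 and germination rate on day 8 for wheat and day 7 for rice and corn, following GOST 12038-84, as the mean of four replicates.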

[2] = system: corn (Krasnodar 385 MV variety); assay: Corn seed treatment with BHMPA salts: germinating power
Summary of the method: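 Seeds (50 per Petri dish on two layers of filter paper) soaked 1 h in BHMPA or its Ca, Mg, Na, Co, Mn, Cu or Zn salts at 1·10^−6-1·10^−12%, with water controls. Germination energy read on day 4, germination on day 8 (wheat) or day 7 (rice, corn), as % means of four replicates. Germinating power taken as root and sprout length plus wet and dry mass per 100 seedlings.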

rice (Diamant variety) = assay: Rice seed treatment with BHMPA salts: germination energy and germination rate; conditions: for Germination energy / Germination rate: rice
Summary of the method: as §1

[3] = comparative study vs Melaphen, 1·10^−8% solution
[4] = corn seeds, solution concentration 1 · 10^−6%, copper salt of BHMPA
[5] = corn seeds, solution concentration 1 · 10^−7%, copper salt of BHMPA
[6] = corn seeds, solution concentration 1 · 10^−8%, copper salt of BHMPA
[7] = corn seeds, solution concentration 1 · 10^−9%, copper salt of BHMPA
[8] = corn seeds, solution concentration 1 · 10^−10%, copper salt of BHMPA
[9] = corn seeds, solution concentration 1 · 10^−11%, copper salt of BHMPA
[10] = corn seeds, solution concentration 1 · 10^−12%, copper salt of BHMPA
[11] = rice seed treatment, solution 1 · 10^−10%

Substance: Copper BHMPA Salt [Cu-salt]
- Germination energy ([1]; 1·10^−6% solution): 80.0%
- Germination rate ([1]; 1·10^−6% solution): 82.5%
- Germination energy ([1]; 1·10^−7% solution): 82.3%
- Germination rate ([1]; 1·10^−7% solution): 85.0%
- Germination energy ([1]; 1·10^−8% solution): 91.8%
- Germination rate ([1]; 1·10^−8% solution): 94.2%
- Germination energy ([1]; 1·10^−9% solution): 90.0%
- Germination rate ([1]; 1·10^−9% solution): 92.3%
- Germination energy ([1]; 1·10^−10% solution): 85.8%
- Germination rate ([1]; 1·10^−10% solution): 88.3%
- Germination energy ([1]; 1·10^−11% solution): 82.3%
- Germination rate ([1]; 1·10^−11% solution): 85.0%
- Germination energy ([1]; 1·10^−12% solution): 78.8%
- Germination rate ([1]; 1·10^−12% solution): 81.7%
- Germination energy [1, 3]: 87.7%
- Germination rate [1, 3]: 97.0%
- optimum concentration for treating corn seeds before sowing ([2]; corn): 1·10^−8%
- Length, root [2, 4]: 5.2 cm
- Length, root, + % to control [2, 4]: 8%
- Length, sprout [2, 4]: 4.2 cm
- Length, sprout, + % to control [2, 4]: 20%
- Mass, dry, root [2, 4]: 1.27 g/100 plantlings
- Mass, dry, root, + % to control [2, 4]: 7%
- Mass, dry, sprout [2, 4]: 1.01 g/100 plantlings
- Mass, dry, sprout, + % to control [2, 4]: 2%
- Mass, wet, root [2, 4]: 8.99 g/100 plantlings
- Mass, wet, root, + % to control [2, 4]: 11%
- Mass, wet, sprout [2, 4]: 7.21 g/100 plantlings
- Mass, wet, sprout, + % to control [2, 4]: 15%
- Length, root [2, 5]: 5.4 cm
- Length, root, + % to control [2, 5]: 12.5%
- Length, sprout [2, 5]: 4.6 cm
- Length, sprout, + % to control [2, 5]: 31%
- Mass, dry, root [2, 5]: 1.38 g/100 plantlings
- Mass, dry, root, + % to control [2, 5]: 16%
- Mass, dry, sprout [2, 5]: 1.09 g/100 plantlings
- Mass, dry, sprout, + % to control [2, 5]: 10%
- Mass, wet, root [2, 5]: 9.81 g/100 plantlings
- Mass, wet, root, + % to control [2, 5]: 21%
- Mass, wet, sprout [2, 5]: 7.94 g/100 plantlings
- Mass, wet, sprout, + % to control [2, 5]: 27%
- Length, root [2, 6]: 5.6 cm
- Length, sprout [2, 6]: 4.8 cm
- Length, sprout, + % to control [2, 6]: 37%
- Mass, dry, root [2, 6]: 1.53 g/100 plantlings
- Mass, dry, root, + % to control [2, 6]: 28.5%
- Mass, dry, sprout [2, 6]: 1.17 g/100 plantlings
- Mass, dry, sprout, + % to control [2, 6]: 18%
- Mass, wet, root [2, 6]: 10.67 g/100 plantlings
- Mass, wet, root, + % to control [2, 6]: 31%
- Mass, wet, sprout [2, 6]: 8.82 g/100 plantlings
- Mass, wet, sprout, + % to control [2, 6]: 41%
- Length, root [2, 7]: 5.3 cm
- Length, root, + % to control [2, 7]: 10%
- Length, sprout [2, 7]: 4.7 cm
- Length, sprout, + % to control [2, 7]: 34%
- Mass, dry, root [2, 7]: 1.50 g/100 plantlings
- Mass, dry, root, + % to control [2, 7]: 26%
- Mass, dry, sprout [2, 7]: 1.13 g/100 plantlings
- Mass, dry, sprout, + % to control [2, 7]: 14%
- Mass, wet, root [2, 7]: 9.58 g/100 plantlings
- Mass, wet, root, + % to control [2, 7]: 18%
- Mass, wet, sprout [2, 7]: 8.75 g/100 plantlings
- Mass, wet, sprout, + % to control [2, 7]: 40%
- Length, root [2, 8]: 5.1 cm
- Length, root, + % to control [2, 8]: 6%
- Length, sprout [2, 8]: 4.4 cm
- Length, sprout, + % to control [2, 8]: 26%
- Mass, dry, root [2, 8]: 1.35 g/100 plantlings
- Mass, dry, root, + % to control [2, 8]: 13%
- Mass, dry, sprout [2, 8]: 1.07 g/100 plantlings
- Mass, dry, sprout, + % to control [2, 8]: 8%
- Mass, wet, root [2, 8]: 9.13 g/100 plantlings
- Mass, wet, root, + % to control [2, 8]: 12%
- Mass, wet, sprout [2, 8]: 7.88 g/100 plantlings
- Mass, wet, sprout, + % to control [2, 8]: 26%
- Length, root [2, 9]: 5.0 cm
- Length, root, + % to control [2, 9]: 4%
- Length, sprout [2, 9]: 3.9 cm
- Length, sprout, + % to control [2, 9]: 11%
- Mass, dry, root [2, 9]: 1.25 g/100 plantlings
- Mass, dry, root, + % to control [2, 9]: 5%
- Mass, dry, sprout [2, 9]: 0.97 g/100 plantlings
- Mass, dry, sprout, + % to control [2, 9]: −2%
- Mass, wet, root [2, 9]: 8.61 g/100 plantlings
- Mass, wet, root, + % to control [2, 9]: 6%
- Mass, wet, sprout [2, 9]: 6.79 g/100 plantlings
- Mass, wet, sprout, + % to control [2, 9]: 9%
- Length, root [2, 10]: 4.8 cm
- Length, root, + % to control [2, 10]: 0%
- Length, sprout [2, 10]: 3.7 cm
- Length, sprout, + % to control [2, 10]: 6%
- Mass, dry, root [2, 10]: 1.21 g/100 plantlings
- Mass, dry, root, + % to control [2, 10]: 2%
- Mass, dry, sprout [2, 10]: 0.92 g/100 plantlings
- Mass, dry, sprout, + % to control [2, 10]: −7%
- Mass, wet, root [2, 10]: 8.37 g/100 plantlings
- Mass, wet, root, + % to control [2, 10]: 3%
- Mass, wet, sprout [2, 10]: 6.35 g/100 plantlings
- Mass, wet, sprout, + % to control [2, 10]: 2%
- Length, root, + % to control ([2]; corn, 1·10^−8% solution): 16%
- Length, sprout, + % to control ([2]; corn, 1·10^−8% solution): 37%
- Mass, dry, root, + % to control ([2]; corn, 1·10^−8% solution): 28.5%
- Mass, dry, sprout, + % to control ([2]; corn, 1·10^−8% solution): 18%
- Mass, wet, root, + % to control ([2]; corn, 1·10^−8% solution): 31%
- Mass, wet, sprout, + % to control ([2]; corn, 1·10^−8% solution): 41%
- Germination energy, % (rice (Diamant variety); [11]): 88.0%
- Germination rate, % (rice (Diamant variety); [11]): 96.0%
- Germination energy (rice (Diamant variety); 1·10^−6% solution): 81.7%
- Germination rate (rice (Diamant variety); 1·10^−6% solution): 88.3%
- Germination energy (rice (Diamant variety); 1·10^−7% solution): 84.3%
- Germination rate (rice (Diamant variety); 1·10^−7% solution): 90.0%
- Germination energy (rice (Diamant variety); 1·10^−8% solution): 85.7%
- Germination rate (rice (Diamant variety); 1·10^−8% solution): 92.0%
- Germination energy (rice (Diamant variety); 1·10^−9% solution): 87.7%
- Germination rate (rice (Diamant variety); 1·10^−9% solution): 94.0%
- Germination energy (rice (Diamant variety); 1·10^−10% solution): 84.7%
- Germination rate (rice (Diamant variety); 1·10^−10% solution): 96.7%
- Germination energy (rice (Diamant variety); 1·10^−10% solution, listed as Cu): 88.7%
- Germination energy (rice (Diamant variety); 1·10^−11% solution): 85.7%
- Germination rate (rice (Diamant variety); 1·10^−11% solution): 94.3%
- Germination energy (rice (Diamant variety); 1·10^−12% solution): 82.0%
- Germination rate (rice (Diamant variety); 1·10^−12% solution): 87.7%
- Germination energy (rice (Diamant variety); [3]): 88.0%
- Germination rate (rice (Diamant variety); [3]): 96.0%
